From patent US20100105723A1, “5-PHENYL-6-PYRIDIN-4-YL-1,3-DIHYDRO-2H-IMIDAZO[4,5-b]PYRIDIN-2-ONE DERIVATIVES USEFUL AS A2B ADENOSINE RECEPTOR ANTAGONISTS” (priority 2006, published 2010)

What was measured:
[1] = target: T1, human A2A receptor (Homo sapiens, UniProt P29274); experiment: A2A radioligand SPA binding assay (3H-ZM241385); settings: for Ki: membranes from HeLa cells transfected with human A2A receptor, mean of at least two independent determinations, read-out: Ki hA2A
T1 construct: expressed in transfected cells; host or cells: HeLa
Experimental: For A2A receptors binding technology was SPA (Amhersham) with 3,3 nM ^3H-ZM241385, […] unlabelled NECA, membranes from HeLa cells transfected with human A2A receptor, incubated 1 h. at room temperature with 1 mg YSi-WGA beads in TrisHCl 50 mM pH 7.4, EDTA 1 mM, MgCl2 10 mM, 2 U/ml adenosin deaminase.

[2] = target: T2, human A3 receptor (Homo sapiens, UniProt P0DMS8); experiment: A3 radioligand filtration binding assay (3H-NECA); settings: for inhibition at 1 µM: at indicated concentration (1000 nM), read-out: % inhibition of radioligand binding at indicated concentration, hA3; for Ki: membranes from HeLa cells transfected with human A3 receptor, read-out: Ki hA3
T2 construct: expressed in transfected cells; host or cells: HeLa
T2 sequence (P0DMS8 1-318): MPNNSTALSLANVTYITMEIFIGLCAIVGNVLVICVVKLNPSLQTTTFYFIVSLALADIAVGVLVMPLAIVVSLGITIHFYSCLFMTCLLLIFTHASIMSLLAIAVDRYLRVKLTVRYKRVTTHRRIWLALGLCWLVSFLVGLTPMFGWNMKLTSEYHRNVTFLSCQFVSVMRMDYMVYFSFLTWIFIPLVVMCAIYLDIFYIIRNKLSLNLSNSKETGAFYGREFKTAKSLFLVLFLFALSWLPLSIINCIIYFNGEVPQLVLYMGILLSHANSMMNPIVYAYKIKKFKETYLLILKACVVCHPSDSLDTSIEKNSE
Experimental: For A3 receptors, in filtration binding assay, 30 nM ^3H-NECA, […] unlabelled R-PIA, […] membranes from HeLa cells transfected with human A3 receptor, incubated 3 h. at room temperature in TrisHCl 50 mM pH 7.4, EDTA 1 mM, MgCl2 5 mM, 2 U/ml adenosin deaminase.

[3] = target: T3, human A1 receptor (Homo sapiens, UniProt P30542); experiment: A1 radioligand filtration binding assay (3H-DPCPX); settings: membranes from CHO cells transfected with human A1 receptor; mean of at least two independent determinations; read-out: Ki hA1
T3 construct: host or cells: CHO
T3 sequence (P30542 1-326): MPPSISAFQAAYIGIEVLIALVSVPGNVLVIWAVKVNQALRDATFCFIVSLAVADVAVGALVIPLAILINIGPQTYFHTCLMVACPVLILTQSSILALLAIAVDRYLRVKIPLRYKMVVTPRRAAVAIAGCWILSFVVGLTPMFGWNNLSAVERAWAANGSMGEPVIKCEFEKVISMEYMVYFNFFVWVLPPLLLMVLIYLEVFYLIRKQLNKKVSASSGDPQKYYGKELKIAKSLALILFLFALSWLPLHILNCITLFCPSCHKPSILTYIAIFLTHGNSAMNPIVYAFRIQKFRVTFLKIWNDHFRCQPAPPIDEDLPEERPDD
Experimental: For A1 receptors a filtration binding assay was performed with 2 nM ^3H-DPCPX, […] unlabelled R-PIA, membranes from CHO cells transfected with human A1 receptor (Euroscreen ES-010-C) and incubated 90 min. at room temperature in Hepes 20 mM pH 7.4, NaCl 100 mM, MgCl2 10 mM and 2 U/ml adenosin deaminase.

[4] = target: T4, human A2B receptor (Homo sapiens, UniProt P29275); experiment: A2B radioligand filtration binding assay ([3H]-DPCPX competition); settings: membranes from HEK293 cells expressing human A2B receptor; mean of at least two independent determinations; read-out: Ki hA2B
T4 construct: host or cells: HEK293
T4 sequence (P29275 1-332): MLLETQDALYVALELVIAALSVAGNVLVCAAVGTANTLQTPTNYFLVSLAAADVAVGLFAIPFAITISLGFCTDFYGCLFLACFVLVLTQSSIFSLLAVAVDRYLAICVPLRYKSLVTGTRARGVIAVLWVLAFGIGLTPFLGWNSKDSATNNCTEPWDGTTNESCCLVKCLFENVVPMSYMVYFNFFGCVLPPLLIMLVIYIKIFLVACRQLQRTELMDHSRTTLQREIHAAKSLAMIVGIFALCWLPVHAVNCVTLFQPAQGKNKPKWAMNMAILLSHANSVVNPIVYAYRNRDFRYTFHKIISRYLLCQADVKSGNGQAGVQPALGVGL
Experimental: For A2B, competition assays were carried out in filtration binding assay, incubating in polypropylene 96 well-plates (n^o 267245, NUNC) containing 2 μL of either 1% DMSO solution, test compound or 100 μM 5′NECA (SIGMA E-2387) for non-specific binding, 100 μg of A2B-membranes prepared from HEK293 cells stably expressing the human A2B receptor (Euroscreen ES-013-C) and 35 nM [^3H]-DPCPX (TRK1064, 128 Ci/mmol, Amersham), in a total volume of 200 μl of buffer A+2 Ul/ml adenosine deaminase, for 60 minutes at room temperature.

T1 sequence (P29274 whole entry): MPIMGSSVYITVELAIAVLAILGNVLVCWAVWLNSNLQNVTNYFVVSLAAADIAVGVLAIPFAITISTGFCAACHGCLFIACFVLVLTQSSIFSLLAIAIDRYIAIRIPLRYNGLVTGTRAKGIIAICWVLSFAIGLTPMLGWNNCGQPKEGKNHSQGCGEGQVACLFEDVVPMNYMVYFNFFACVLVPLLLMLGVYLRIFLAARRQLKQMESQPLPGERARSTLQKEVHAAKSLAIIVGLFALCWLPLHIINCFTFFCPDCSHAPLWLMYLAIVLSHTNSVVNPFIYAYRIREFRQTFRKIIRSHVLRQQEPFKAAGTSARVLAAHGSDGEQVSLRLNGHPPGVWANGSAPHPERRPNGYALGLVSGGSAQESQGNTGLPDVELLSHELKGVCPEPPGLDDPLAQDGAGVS

Ki [1] [nM] | inhibition at 1 µM [2] [%] | Ki [2] [nM] | Ki [3] [nM] | Ki [4] [nM] | inhibition at 2.5 µM ([1]; at indicated concentration (2500 nM), read-out: % inhibition of radioligand binding at indicated concentration, hA2A) [%] | Structure (SMILES)
721 | 19 | > 1000 | 35 | 0.9 |  | O=c1[nH]c2cc(-c3ccncc3F)c(-c3ccccc3F)nc2[nH]1 [Example 1, 5-(2-Fluorophenyl)-6-(3-fluoropyridin-4-yl)-1,3-dihydro-2H-imidazo[4,5-b]pyridin-2-one]
> 2500 | 18 | > 1000 | 632 | 1.1 | 6 | O=c1[nH]c2cc(-c3c(F)cncc3F)c(-c3ccccc3F)nc2[nH]1 [Example 3, 6-(3,5-Difluoropyridin-4-yl)-5-(2-fluorophenyl)-1,3-dihydro-2H-imidazo[4,5-b]pyridin-2-one]
449 | 22 | > 1000 | 76 | 1.8 |  | O=c1[nH]c2cc(-c3ccncc3Cl)c(-c3ccccc3F)nc2[nH]1 [Example 2, 6-(3-Chloropyridin-4-yl)-5-(2-fluorophenyl)-1,3-dihydro-2H-imidazo[4,5-b]pyridin-2-one]
